# Source: patent publication US4312867A, “Antibacterial compounds, processes for their preparation and compositions containing them” (Beecham Group Limited, priority 1979, dated 1982)
# How the values were obtained:
# Assay type in all cases: cell-based
# Sarcina lutea 8340 = assay: MIC human bacteria (Table 1), serial dilution in nutrient agar; settings: Micrococcus luteus, nutrient agar with 5% chocolated horse blood, read-out: MIC
# E. coli NCTC 10418 [1] = assay: as above; settings: Escherichia coli, NCTC10418
# [2] = test system: Haemophilus influenzae Q1; assay: as above; settings: Haemophilus influenzae, Q1
# P. mirabilis 889 = assay: as above; settings: Proteus mirabilis, 889
# M pneumoniae ATCC 15492 [3] = assay: in vitro anti-mycoplasmal MIC, Friis' broth (Table 3)
# Method: (§1) The minimum inhibitory concentrations (MIC) of the examples were determined by either:
# (§2) (i) in Friis' broth using microtitre plates, by modification of the metabolic-inhibition test (Taylor-Robinson, Post Frad, Med. J., 1967, 43, 100).
# [4] = test system: M suipneumoniae J2206/183b; assay: as above
# Method: as §1, §2
# M pulmonis JB [5] = assay: as above
# Method: as §1, §2
# M pneumoniae 427a [6] = assay: as above
# Method: as §1, §2
# M dispar H225 = assay: as above
# Method: as §1, §2
# M dispar NCTC 10125 = assay: as above
# Method: as §1, §2
# M fermentans MWKL4 [7] = assay: as above
# Method: as §1, §2
# M suipneumoniae Str 11 = assay: as above
# Method: as §1, §2
# M gallisepticum S6 = assay: in vitro anti-mycoplasmal MIC, Friis' agar (Table 3)
# Method: as §1
# (§3) or (ii) by serial dilution in Friis' agar medium.
# M synoviae ATCC 25204 = assay: as above
# Method: as §1, §3
# M pneumoniae ATCC 15492 [8] = assay: as above
# Method: as §1, §3
# [9] = test system: M bovigenitalium ATCC 14173; assay: as above
# Method: as §1, §3
# M arthritidis ATCC 14124 = assay: as above
# Method: as §1, §3
# M alkalescens NCTC 10135 = assay: as above
# Method: as §1, §3
# M hyosynoviae ATCC 25591 = assay: as above
# Method: as §1, §3
# M pulmonis JB [10] = assay: as above
# Method: as §1, §3
# M pneumoniae 427a [11] = assay: as above
# Method: as §1, §3
# M hyorhinis ATCC 23234 = assay: as above
# Method: as §1, §3
# M fermentans MWKL4 [12] = assay: as above
# Method: as §1, §3
# Strep faecalis I = assay: MIC human bacteria (Table 1), serial dilution in nutrient agar; settings: nutrient agar with 5% chocolated horse blood
# [13] = test system: Erysipelothrix rhusiopathiae NCTC 8163; assay: MIC veterinary bacteria (Table 2), serial dilution in agar; settings: NCTC8163; Erysipelothrix rhusiopathiae NCTC 8163; diagnostic sensitivity test agar; read-out: MIC
# K. aerogenes A = assay: MIC human bacteria (Table 1), serial dilution in nutrient agar; settings: Klebsiella aerogenes, nutrient agar with 5% chocolated horse blood
# Strep agalactiae SPA1 = assay: MIC veterinary bacteria (Table 2), serial dilution in agar; settings: diagnostic sensitivity test agar
# Strep pyogenes C 2761 = assay: MIC human bacteria (Table 1), serial dilution in nutrient agar; settings: nutrient agar with 5% chocolated horse blood
# Strep pyogenes A 64/848 = assay: as above; settings: nutrient agar with 5% chocolated horse blood
# Staph aureus Oxford [14] = assay: as above; settings: Staphylococcus aureus, nutrient agar with 5% chocolated horse blood
# E. coli NCTC 10418 [15] = assay: MIC veterinary bacteria (Table 2), serial dilution in agar; settings: Escherichia coli, NCTC10418
# [16] = test system: Corynebacterium xerosis 9755; assay: MIC human bacteria (Table 1), serial dilution in nutrient agar; settings: nutrient agar with 5% chocolated horse blood, read-out: MIC
# Bacillus subtilis 6633 = assay: as above; settings: nutrient agar with 5% chocolated horse blood
# Staph aureus W2827 = assay: as above; settings: Staphylococcus aureus, nutrient agar with 5% chocolated horse blood
# Bord bronchiseptica B09 = assay: MIC veterinary bacteria (Table 2), serial dilution in agar; settings: diagnostic sensitivity test agar
# Strep pyogenes B 2788 = assay: MIC human bacteria (Table 1), serial dilution in nutrient agar; settings: nutrient agar with 5% chocolated horse blood
# Strep dysgalaciae SPD1 = assay: MIC veterinary bacteria (Table 2), serial dilution in agar; settings: diagnostic sensitivity test agar
# S. dublin S7 = assay: as above; settings: Salmonella enterica, diagnostic sensitivity test agar
# E. coli ESS = assay: MIC human bacteria (Table 1), serial dilution in nutrient agar; settings: Escherichia coli; E. coli ESS; nutrient agar with 5% chocolated horse blood; read-out: MIC
# Staph aureus Oxford [17] = assay: MIC veterinary bacteria (Table 2), serial dilution in agar; settings: Staphylococcus aureus
# Bord bronchiseptica B08 = assay: as above; settings: diagnostic sensitivity test agar
# Past haemolytica PA5 = assay: as above; settings: diagnostic sensitivity test agar
# Strep uberis SPU1 = assay: as above; settings: diagnostic sensitivity test agar
# [18] = test system: Strep suis (group D) SPS11; assay: as above; settings: diagnostic sensitivity test agar
# [19] = test system: Corynebacterium pyogenes CY1; assay: as above; settings: Trueperella pyogenes, diagnostic sensitivity test agar
# Past multocida PA2 = assay: as above; settings: diagnostic sensitivity test agar
# Past multocida PA1 = assay: as above; settings: diagnostic sensitivity test agar
# [20] = test system: Haemophilus influenzae Wy21; assay: MIC human bacteria (Table 1), serial dilution in nutrient agar; settings: Haemophilus influenzae, WY21
# [21] = test system: Staph aureus 152 (pen. sens); assay: MIC veterinary bacteria (Table 2), serial dilution in agar; settings: Staphylococcus aureus, diagnostic sensitivity test agar
# S. typhimurium S18 = assay: as above; settings: Salmonella enterica, diagnostic sensitivity test agar
# Ps. aeruginosa 10662 = assay: MIC human bacteria (Table 1), serial dilution in nutrient agar; settings: Pseudomonas aeruginosa, nutrient agar with 5% chocolated horse blood
# [22] = test system: Staph aureus B4 (pen. resis); assay: MIC veterinary bacteria (Table 2), serial dilution in agar; settings: Staphylococcus aureus
# Staph aureus Russell = assay: MIC human bacteria (Table 1), serial dilution in nutrient agar; settings: Staphylococcus aureus, nutrient agar with 5% chocolated horse blood
# E. coli E1 = assay: MIC veterinary bacteria (Table 2), serial dilution in agar; settings: Escherichia coli, diagnostic sensitivity test agar
# [23] = test system: Pasteurella multocida 1633; assay: MIC human bacteria (Table 1), serial dilution in nutrient agar; settings: Pasteurella multocida, 1633
compound,measurement,setting,value
"C/C(=C\C(=O)OCCCS(N)(=O)=O)CC1OCC(CC2OC2C(C)C(C)O)C(O)C1O (stereo not shown) [Example 1, 3-Sulphamoylpropyl monate A]",MIC,Sarcina lutea 8340,> 100 µg/mL
same,MIC,E. coli NCTC 10418 [1],> 100 µg/mL
same,MIC,[2],0.05 µg/mL
same,MIC,P. mirabilis 889,100 µg/mL
same,MIC,M pneumoniae ATCC 15492 [3],2.5 µg/mL
same,MIC,[4],0.312 µg/mL
same,MIC,M pulmonis JB [5],0.02 µg/mL
same,MIC,M pneumoniae 427a [6],2.5 µg/mL
same,MIC,M dispar H225,0.039 µg/mL
same,MIC,M dispar NCTC 10125,0.078 µg/mL
same,MIC,M fermentans MWKL4 [7],0.039 µg/mL
same,MIC,M suipneumoniae Str 11,0.078 µg/mL
same,MIC,M gallisepticum S6,> 10 µg/mL
same,MIC,M synoviae ATCC 25204,< 0.02 µg/mL
same,MIC,M pneumoniae ATCC 15492 [8],5 µg/mL
same,MIC,[9],0.039 µg/mL
same,MIC,M arthritidis ATCC 14124,> 10 µg/mL
same,MIC,M alkalescens NCTC 10135,0.039 µg/mL
same,MIC,M hyosynoviae ATCC 25591,0.156 µg/mL
same,MIC,M pulmonis JB [10],0.039 µg/mL
same,MIC,M pneumoniae 427a [11],2.5 µg/mL
same,MIC,M hyorhinis ATCC 23234,0.312 µg/mL
same,MIC,M fermentans MWKL4 [12],0.078 µg/mL
same,MIC,Strep faecalis I,> 100 µg/mL
same,MIC,[13],> 80 µg/mL
same,MIC,K. aerogenes A,> 100 µg/mL
same,MIC,Strep agalactiae SPA1,2.5 µg/mL
same,MIC,Strep pyogenes C 2761,2.5 µg/mL
same,MIC,Strep pyogenes A 64/848,0.5 µg/mL
same,MIC,Staph aureus Oxford [14],50 µg/mL
same,MIC,E. coli NCTC 10418 [15],> 80 µg/mL
same,MIC,[16],> 100 µg/mL
same,MIC,Bacillus subtilis 6633,10 µg/mL
same,MIC,Staph aureus W2827,100 µg/mL
same,MIC,Bord bronchiseptica B09,20 µg/mL
same,MIC,Strep pyogenes B 2788,2.5 µg/mL
same,MIC,Strep dysgalaciae SPD1,2.5 µg/mL
same,MIC,S. dublin S7,> 80 µg/mL
same,MIC,E. coli ESS,25 µg/mL
same,MIC,Staph aureus Oxford [17],40 µg/mL
same,MIC,Bord bronchiseptica B08,80 µg/mL
same,MIC,Past haemolytica PA5,10 µg/mL
same,MIC,Strep uberis SPU1,1.25 µg/mL
same,MIC,[18],80 µg/mL
same,MIC,[19],> 80 µg/mL
same,MIC,Past multocida PA2,0.156 µg/mL
same,MIC,Past multocida PA1,0.625 µg/mL
same,MIC,[20],0.05 µg/mL
same,MIC,[21],20 µg/mL
same,MIC,S. typhimurium S18,> 80 µg/mL
same,MIC,Ps. aeruginosa 10662,> 100 µg/mL
same,MIC,[22],40 µg/mL
same,MIC,Staph aureus Russell,50 µg/mL
same,MIC,E. coli E1,> 80 µg/mL
same,MIC,[23],0.5 µg/mL
